{"source": "patent US20230109758A1", "about": "(priority 2018, published 2023)", "key": {"[1]": {"system": "C. beijerinckii DSM 6423 ΔcatB", "assay_type": "cell-based"}, "C. beijerinckii DSM 6423": {"system": "C. beijerinckii DSM 6423", "assay_type": "cell-based"}}}
{"smiles": "CS(=O)(=O)c1ccc([C@@H](O)[C@@H](CO)NC(=O)C(Cl)Cl)cc1", "note": "[thiamphenicol]", "values": [{"measurement": "Growth on thiamphenicol-supplemented medium", "setting": "[1]", "value": "only the initial C. beijerinckii DSM 6423 strain is able to grow"}, {"measurement": "Growth on thiamphenicol-supplemented medium", "setting": "C. beijerinckii DSM 6423", "value": "able to grow"}]}
